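Dose response: 5 concentrations. Exposure: 48 h. Format: 96-well plates. Endpoint: linear interpolation; highest concentration if not reached. TGI marks complete inhibition of growth.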
Key:
Assay in all cases: DTP human tumour cell line panel, 48 h
HS 578T breast = tested on: HS 578T breast
HT29 colon = tested on: HT29 colon
TK-10 renal = tested on: TK-10 renal
HCC-2998 colon = tested on: HCC-2998 colon
MDA-N = tested on: MDA-N
NCI/ADR-RES ovarian = tested on: NCI/ADR-RES ovarian
UACC-257 melanoma = tested on: UACC-257 melanoma
SW-620 colon = tested on: SW-620 colon
SK-MEL-2 melanoma = tested on: SK-MEL-2 melanoma
SNB-19 CNS = tested on: SNB-19 CNS
KM12 colon = tested on: KM12 colon
DU-145 prostate = tested on: DU-145 prostate
CCRF-CEM leukemia = tested on: CCRF-CEM leukemia
M14 melanoma = tested on: M14 melanoma
OVCAR-5 ovarian = tested on: OVCAR-5 ovarian
HCT-116 colon = tested on: HCT-116 colon
RXF 393 renal = tested on: RXF 393 renal
786-0 renal = tested on: 786-0 renal
SN12C renal = tested on: SN12C renal
LOX IMVI melanoma = tested on: LOX IMVI melanoma
OVCAR-3 ovarian = tested on: OVCAR-3 ovarian
SK-MEL-28 melanoma = tested on: SK-MEL-28 melanoma
CAKI-1 renal = tested on: CAKI-1 renal
SF-268 CNS = tested on: SF-268 CNS
HOP-62 NSCLC = tested on: HOP-62 NSCLC
U251 CNS = tested on: U251 CNS
SNB-75 CNS = tested on: SNB-75 CNS
ACHN renal = tested on: ACHN renal
PC-3 prostate = tested on: PC-3 prostate
HL-60(TB) leukemia = tested on: HL-60(TB) leukemia
MDA-MB-231 breast = tested on: MDA-MB-231 breast
EKVX NSCLC = tested on: EKVX NSCLC
K-562 leukemia = tested on: K-562 leukemia
SK-MEL-5 melanoma = tested on: SK-MEL-5 melanoma
NCI-H460 lung = tested on: NCI-H460 lung
UO-31 renal = tested on: UO-31 renal
MALME-3M melanoma = tested on: MALME-3M melanoma
NCI-H522 lung = tested on: NCI-H522 lung
SF-539 CNS = tested on: SF-539 CNS
HCT-15 colon = tested on: HCT-15 colon
SR leukemia = tested on: SR leukemia
HOP-92 NSCLC = tested on: HOP-92 NSCLC
MDA-MB-435 = tested on: MDA-MB-435
SF-295 CNS = tested on: SF-295 CNS
NCI-H226 lung = tested on: NCI-H226 lung
NCI-H23 lung = tested on: NCI-H23 lung
OVCAR-8 ovarian = tested on: OVCAR-8 ovarian
T-47D breast = tested on: T-47D breast
OVCAR-4 ovarian = tested on: OVCAR-4 ovarian
RPMI-8226 leukemia = tested on: RPMI-8226 leukemia
SK-OV-3 ovarian = tested on: SK-OV-3 ovarian
MCF7 breast = tested on: MCF7 breast
IGROV1 ovarian = tested on: IGROV1 ovarian
MOLT-4 leukemia = tested on: MOLT-4 leukemia
A549 NSCLC = tested on: A549 NSCLC
UACC-62 melanoma = tested on: UACC-62 melanoma
COLO 205 colon = tested on: COLO 205 colon

Compound: CC(C)(C)[Si](C)(C)OCC1CCC(n2cnc3c(=O)[nH]cnc32)O1 (configuration not stated)
- TGI (HS 578T breast): > 100 µM
- TGI (HT29 colon): > 100 µM
- TGI (TK-10 renal): > 100 µM
- TGI (HCC-2998 colon): > 100 µM
- TGI (MDA-N): > 100 µM
- TGI (NCI/ADR-RES ovarian): > 100 µM
- TGI (UACC-257 melanoma): > 100 µM
- TGI (SW-620 colon): > 100 µM
- TGI (SK-MEL-2 melanoma): > 100 µM
- TGI (SNB-19 CNS): > 100 µM
- TGI (KM12 colon): > 100 µM
- TGI (DU-145 prostate): > 100 µM
- TGI (CCRF-CEM leukemia): > 100 µM
- TGI (M14 melanoma): > 100 µM
- TGI (OVCAR-5 ovarian): > 100 µM
- TGI (HCT-116 colon): > 100 µM
- TGI (RXF 393 renal): > 100 µM
- TGI (786-0 renal): > 100 µM
- TGI (SN12C renal): > 100 µM
- TGI (LOX IMVI melanoma): > 100 µM
- TGI (OVCAR-3 ovarian): > 100 µM
- TGI (SK-MEL-28 melanoma): > 100 µM
- TGI (CAKI-1 renal): > 100 µM
- TGI (SF-268 CNS): > 100 µM
- TGI (HOP-62 NSCLC): > 100 µM
- TGI (U251 CNS): > 100 µM
- TGI (SNB-75 CNS): 99.8 µM
- TGI (ACHN renal): > 100 µM
- TGI (PC-3 prostate): > 100 µM
- TGI (HL-60(TB) leukemia): > 100 µM
- TGI (MDA-MB-231 breast): > 100 µM
- TGI (EKVX NSCLC): > 100 µM
- TGI (K-562 leukemia): > 100 µM
- TGI (SK-MEL-5 melanoma): > 100 µM
- TGI (NCI-H460 lung): > 100 µM
- TGI (UO-31 renal): > 100 µM
- TGI (MALME-3M melanoma): > 100 µM
- TGI (NCI-H522 lung): > 100 µM
- TGI (SF-539 CNS): > 100 µM
- TGI (HCT-15 colon): > 100 µM
- TGI (SR leukemia): > 100 µM
- TGI (HOP-92 NSCLC): > 100 µM
- TGI (MDA-MB-435): > 100 µM
- TGI (SF-295 CNS): > 100 µM
- TGI (NCI-H226 lung): > 100 µM
- TGI (NCI-H23 lung): > 100 µM
- TGI (OVCAR-8 ovarian): > 100 µM
- TGI (T-47D breast): > 100 µM
- TGI (OVCAR-4 ovarian): > 100 µM
- TGI (RPMI-8226 leukemia): > 100 µM
- TGI (SK-OV-3 ovarian): > 100 µM
- TGI (MCF7 breast): > 100 µM
- TGI (IGROV1 ovarian): > 100 µM
- TGI (MOLT-4 leukemia): > 100 µM
- TGI (A549 NSCLC): > 100 µM
- TGI (UACC-62 melanoma): > 100 µM
- TGI (COLO 205 colon): > 100 µM
